Key:
Experiment in all cases: relative viability (nuclei count vs DMSO), 5 days (fraction); higher = more cells survive
NCI-H1355 = system: NCI-H1355
In short: (§1)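 Lung cancer cell lines were pin-tool dosed in 1536-well plates on the day after seeding, with either a lone drug or a fixed anchor-drug dose plus five library-drug doses (not always all listed) in √10 steps. Nuclei were counted on 4× images after 5 days. Relative viability is the ratio of treated-well to vehicle-well nuclei counts, with each value a median of duplicate plates.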

NCI-H520 = system: NCI-H520
In short: as §1

LC-2-ad = system: LC-2-ad
In short: as §1

LCLC-97TM1 = system: LCLC-97TM1
In short: as §1

NCI-H23 = system: NCI-H23
In short: as §1

NCI-H2347 = system: NCI-H2347
In short: as §1

PC-3 [JPC-3] = system: PC-3 [JPC-3]
In short: as §1

NCI-H1648 = system: NCI-H1648
In short: as §1

NCI-H1703 = system: NCI-H1703
In short: as §1

NCI-H1299 = system: NCI-H1299
In short: as §1

EBC-1 = system: EBC-1
In short: as §1

IA-LM = system: IA-LM
In short: as §1

A549 = system: A549
In short: as §1

Calu-6 = system: Calu-6
In short: as §1

Compound COCC1(CO)C(=O)C2CCN1CC2 (stereo not given) [PRIMA-1MET] + Nc1nc2[nH]cc(CCc3ccc(C(=O)N[C@@H](CCC(=O)O)C(=O)O)cc3)c2c(=O)[nH]1 [Pemetrexed] (partner 0.2 µM) has a relative viability (NCI-H1355; first compound 0.2 µM) of 1.02, a relative viability (NCI-H1355; first compound 0.6325 µM) of 0.985 and a relative viability (NCI-H1355; first compound 2 µM) of 1. It also gave a relative viability (NCI-H1355; first compound 6.325 µM) of 1.01, a relative viability (NCI-H1355; first compound 20 µM) of 1.04 and a relative viability (NCI-H520; first compound 0.2 µM) of 0.726. For the same compound, the relative viability (NCI-H520; first compound 2 µM) was 0.681, the relative viability (NCI-H520; first compound 6.325 µM) was 0.647 and the relative viability (NCI-H520; first compound 20 µM) was 0.421. The relative viability (LC-2-ad; first compound 0.2 µM) was 0.26, the relative viability (LC-2-ad; first compound 0.6325 µM) was 0.301 and the relative viability (LC-2-ad; first compound 2 µM) was 0.268. For the same compound, the relative viability (LC-2-ad; first compound 6.325 µM) was 0.273, the relative viability (LC-2-ad; first compound 20 µM) was 0.259 and the relative viability (LCLC-97TM1; first compound 0.2 µM) was 0.193. For the same compound, the relative viability (LCLC-97TM1; first compound 0.6325 µM) was 0.198, the relative viability (LCLC-97TM1; first compound 2 µM) was 0.182 and the relative viability (LCLC-97TM1; first compound 6.325 µM) was 0.197. The relative viability (LCLC-97TM1; first compound 20 µM) was 0.21, the relative viability (NCI-H23; first compound 0.2 µM) was 0.425 and the relative viability (NCI-H23; first compound 0.6325 µM) was 0.595. It also gave a relative viability (NCI-H23; first compound 2 µM) of 0.443, a relative viability (NCI-H23; first compound 6.325 µM) of 0.579 and a relative viability (NCI-H23; first compound 20 µM) of 0.175. For the same compound, the relative viability (NCI-H2347; first compound 0.2 µM) was 0.441, the relative viability (NCI-H2347; first compound 0.6325 µM) was 0.455 and the relative viability (NCI-H2347; first compound 2 µM) was 0.335. It also gave a relative viability (NCI-H2347; first compound 6.325 µM) of 0.407, a relative viability (NCI-H2347; first compound 20 µM) of 0.398 and a relative viability (PC-3 [JPC-3]; first compound 0.2 µM) of 1.06. The relative viability (PC-3 [JPC-3]; first compound 0.6325 µM) was 0.975, the relative viability (PC-3 [JPC-3]; first compound 2 µM) was 1.04 and the relative viability (PC-3 [JPC-3]; first compound 6.325 µM) was 1.14. The relative viability (PC-3 [JPC-3]; first compound 20 µM) was 1.04, the relative viability (NCI-H1648; first compound 0.2 µM) was 0.72 and the relative viability (NCI-H1648; first compound 2 µM) was 0.776. It also gave a relative viability (NCI-H1648; first compound 20 µM) of 0.637.

COCC1(CO)C(=O)C2CCN1CC2 (stereo not given) [PRIMA-1MET] + Cc1nc(NC(=O)N2CCC[C@H]2C(N)=O)sc1-c1ccnc(C(C)(C)C(F)(F)F)c1 [Alpelisib] (partner 2 µM) was tested, and the relative viability (NCI-H1355; first compound 0.2 µM) was 0.953, the relative viability (NCI-H1355; first compound 0.6325 µM) was 0.7 and the relative viability (NCI-H1355; first compound 2 µM) was 0.766. It also gave a relative viability (NCI-H1355; first compound 6.325 µM) of 0.86, a relative viability (NCI-H1355; first compound 20 µM) of 0.852 and a relative viability (NCI-H1703; first compound 0.2 µM) of 0.393. For the same compound, the relative viability (NCI-H1703; first compound 0.6325 µM) was 0.37, the relative viability (NCI-H1703; first compound 2 µM) was 0.318 and the relative viability (NCI-H1703; first compound 6.325 µM) was 0.436. The relative viability (NCI-H1703; first compound 20 µM) was 0.0451, the relative viability (NCI-H520; first compound 0.2 µM) was 1.21 and the relative viability (NCI-H520; first compound 0.6325 µM) was 0.84. It also gave a relative viability (NCI-H520; first compound 6.325 µM) of 0.831, a relative viability (NCI-H520; first compound 20 µM) of 0.0746 and a relative viability (LC-2-ad; first compound 0.2 µM) of 0.909. For the same compound, the relative viability (LC-2-ad; first compound 0.6325 µM) was 0.931, the relative viability (LC-2-ad; first compound 2 µM) was 1.01 and the relative viability (LC-2-ad; first compound 6.325 µM) was 0.909. The relative viability (LC-2-ad; first compound 20 µM) was 0.695, the relative viability (NCI-H1299; first compound 0.2 µM) was 1.07 and the relative viability (NCI-H1299; first compound 0.6325 µM) was 1.08. It also gave a relative viability (NCI-H1299; first compound 2 µM) of 1.08, a relative viability (NCI-H1299; first compound 6.325 µM) of 1.03 and a relative viability (NCI-H1299; first compound 20 µM) of 0.976. The relative viability (EBC-1; first compound 0.2 µM) was 0.87, the relative viability (EBC-1; first compound 0.6325 µM) was 0.921 and the relative viability (EBC-1; first compound 2 µM) was 0.83. For the same compound, the relative viability (EBC-1; first compound 6.325 µM) was 0.757, the relative viability (EBC-1; first compound 20 µM) was 0.666 and the relative viability (LCLC-97TM1; first compound 0.2 µM) was 0.277. For the same compound, the relative viability (LCLC-97TM1; first compound 2 µM) was 0.22, the relative viability (LCLC-97TM1; first compound 6.325 µM) was 0.232 and the relative viability (LCLC-97TM1; first compound 20 µM) was 0.0607. For the same compound, the relative viability (NCI-H23; first compound 0.2 µM) was 0.793, the relative viability (NCI-H23; first compound 0.6325 µM) was 0.583 and the relative viability (NCI-H23; first compound 2 µM) was 0.555. The relative viability (NCI-H23; first compound 6.325 µM) was 0.669, the relative viability (NCI-H23; first compound 20 µM) was 0.111 and the relative viability (IA-LM; first compound 0.2 µM) was 0.695. For the same compound, the relative viability (IA-LM; first compound 0.6325 µM) was 0.863, the relative viability (IA-LM; first compound 2 µM) was 0.726 and the relative viability (IA-LM; first compound 6.325 µM) was 1. It also gave a relative viability (IA-LM; first compound 20 µM) of 0.813, a relative viability (NCI-H2347; first compound 0.2 µM) of 1.08 and a relative viability (NCI-H2347; first compound 0.6325 µM) of 1.01. For the same compound, the relative viability (NCI-H2347; first compound 2 µM) was 0.602, the relative viability (NCI-H2347; first compound 6.325 µM) was 1.08 and the relative viability (NCI-H2347; first compound 20 µM) was 0.923. For the same compound, the relative viability (A549; first compound 0.2 µM) was 0.728, the relative viability (A549; first compound 0.6325 µM) was 0.803 and the relative viability (A549; first compound 2 µM) was 0.861. For the same compound, the relative viability (A549; first compound 6.325 µM) was 0.881, the relative viability (A549; first compound 20 µM) was 0.593 and the relative viability (PC-3 [JPC-3]; first compound 0.2 µM) was 1.1. The relative viability (PC-3 [JPC-3]; first compound 0.6325 µM) was 0.942, the relative viability (PC-3 [JPC-3]; first compound 2 µM) was 1.02 and the relative viability (PC-3 [JPC-3]; first compound 6.325 µM) was 1.07. The relative viability (PC-3 [JPC-3]; first compound 20 µM) was 1.06, the relative viability (Calu-6; first compound 0.2 µM) was 1.02 and the relative viability (Calu-6; first compound 0.6325 µM) was 0.941. It also gave a relative viability (Calu-6; first compound 2 µM) of 0.859, a relative viability (Calu-6; first compound 6.325 µM) of 1 and a relative viability (Calu-6; first compound 20 µM) of 0.856.
